Assay results as given in article PMC3807862 (Journal of medicinal chemistry, 2013).

What was measured:
[1] = molecular target: T1, HNE (Homo sapiens, UniProt P08246); test: HNE inhibition over time; assay type: biochemical; conditions: for period of maximal HNE inhibition (during the first x h): 5 μM compound; for time to recovery of HNE activity after treatment: up to 5 μM compound
T1 sequence (P08246 30-267): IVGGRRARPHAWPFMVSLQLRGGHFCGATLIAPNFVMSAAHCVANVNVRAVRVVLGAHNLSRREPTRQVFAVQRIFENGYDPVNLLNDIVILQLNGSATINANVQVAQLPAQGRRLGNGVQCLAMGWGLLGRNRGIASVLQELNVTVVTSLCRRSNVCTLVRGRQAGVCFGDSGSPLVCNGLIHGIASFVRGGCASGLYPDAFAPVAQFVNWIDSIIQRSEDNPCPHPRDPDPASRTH

[2] = molecular target: T2, Human neutrophil elastase (HNE) (Homo sapiens, UniProt P08246); test: HNE inhibition assay; assay type: biochemical
T2 sequence (P08246 30-267): T1 sequence (P08246 30-267)

[3] = molecular target: human plasma thrombin (Homo sapiens, UniProt P00734); test: Thrombin inhibition; assay type: biochemical
[4] = Spontaneous hydrolysis in aqueous buffer; assay type: physicochemical; conditions: 20 μM
[5] = molecular target: human urine urokinase (Homo sapiens, UniProt P00749); test: Urokinase inhibition; assay type: biochemical
[6] = system: human pancreas chymotrypsin; test: Chymotrypsin inhibition; assay type: biochemical
[7] = molecular target: human plasma kallikrein (Homo sapiens, UniProt P03952); test: Kallikrein inhibition; assay type: biochemical
Sequence of human plasma kallikrein (P03952 20-638): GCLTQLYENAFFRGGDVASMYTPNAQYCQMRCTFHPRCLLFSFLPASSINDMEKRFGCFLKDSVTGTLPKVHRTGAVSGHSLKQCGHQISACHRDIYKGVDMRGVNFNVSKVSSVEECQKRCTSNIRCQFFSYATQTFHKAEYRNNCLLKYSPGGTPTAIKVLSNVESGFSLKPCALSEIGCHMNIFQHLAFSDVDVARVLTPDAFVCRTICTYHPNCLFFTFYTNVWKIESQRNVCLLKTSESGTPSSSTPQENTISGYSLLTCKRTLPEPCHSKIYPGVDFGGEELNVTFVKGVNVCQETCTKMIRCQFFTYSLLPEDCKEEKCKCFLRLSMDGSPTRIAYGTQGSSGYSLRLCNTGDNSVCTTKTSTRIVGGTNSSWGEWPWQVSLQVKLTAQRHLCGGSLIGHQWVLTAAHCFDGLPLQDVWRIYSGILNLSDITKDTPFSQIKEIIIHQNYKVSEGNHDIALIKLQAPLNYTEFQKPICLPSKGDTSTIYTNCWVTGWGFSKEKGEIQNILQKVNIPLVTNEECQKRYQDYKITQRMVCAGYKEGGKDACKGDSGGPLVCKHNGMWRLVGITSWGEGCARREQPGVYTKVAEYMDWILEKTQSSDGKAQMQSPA

COC(=O)c1nn(C(=O)c2cccc(C)c2)c2cc([N+](=O)[O-])ccc12 [Compound 15, 1-(3-Methylbenzoyl)-6-nitro-1H-indazole-3-carboxylic Acid Methyl Ester]
period of maximal HNE inhibition (during the first x h) [1]: 4 h

COC(=O)c1nn(C(=O)c2cccc(C)c2)c2c([N+](=O)[O-])cccc12 [Compound 16, 1-(3-Methylbenzoyl)-7-nitro-1H-indazole-3-carboxylic Acid Methyl Ester]
HNE inhibitory activity (in words) [2]: inactive

CCOC(=O)c1nn(C(=O)c2ccsc2)c2ccc([N+](=O)[O-])cc12 [Compound 14h, 5-Nitro-1-(thiophene-3-carbonyl)-1H-indazole-3-carboxylic Acid Ethyl Ester]
time to recovery of HNE activity after treatment [1]: 1 to 2 h

COC(=O)c1nn(C(=O)c2cccc(C)c2)c2ccc([N+](=O)[O-])cc12 [Compound 14b, 1-(3-Methylbenzoyl)-5-nitro-1H-indazole-3-carboxylic Acid Methyl Ester]
period of maximal HNE inhibition (during the first x h) [1]: 4 h

CCOC(=O)c1nn(C(=O)c2ccccc2)c2ccc(OC)cc12 [Compound 31d, 1-Benzoyl-5-methoxy-1H-indazole-3-carboxylic Acid Ethyl Ester]
increase of HNE inhibitory activity compared to the reference compounds A and F [2]: 2-3 fold

Cc1cccc(C(=O)n2nc(C#N)c3ccccc32)c1 [Compound 5b, 1-(3-Methylbenzoyl)-1H-indazole-3-carbonitrile]
thrombin inhibition (in words) [3]: at micromolar concentrations | time after which compound was hydrolyzed almost completely [4]: 35 min | urokinase inhibition (in words) [5]: at micromolar concentrations

CCOC(=O)c1nn(C(=O)c2cccc(C)c2)c2ccc(NC(C)=O)cc12 [Compound 20a, 5-Acetylamino-1-(3-methylbenzoyl)-1H-indazole-3-carboxylic Acid Ethyl Ester]
period of maximal HNE inhibition (during the first x h) [1]: 4 h

CCOC(=O)c1nn(C(=O)c2cccc(C)c2)c2ccc(NC(=O)C3CC3)cc12 [Compound 20f, 5-(Cyclopropanecarbonylamino)-1-(3-methylbenzoyl)-1H-indazole-3-carboxylic Acid Ethyl Ester]
chymotrypsin inhibition (in words) [6]: lowest activity for this enzyme | urokinase inhibition (in words) [5]: no inhibitory activity | IC50 [2]: ~10 nM | period of maximal HNE inhibition (during the first x h) [1]: 5 h

CCOC(=O)c1nn(C(=O)c2cccc(C)c2)c2ccc(OC(F)(F)F)cc12 [Compound 31g, 1-(3-Methylbenzoyl)-5-trifluoromethoxy-1H-indazole-3-carboxylic Acid Ethyl Ester]
increase of HNE inhibitory activity compared to the reference compounds A and F [2]: 2-3 fold

COC(=O)c1nn(C(=O)c2ccccc2)c2ccc([N+](=O)[O-])cc12 [Compound 14a, 1-Benzoyl-5-nitro-1H-indazole-3-carboxylic Acid Methyl Ester]
kallikrein inhibition (in words) [7]: inhibited kallikrein | time to recovery of HNE activity after treatment [1]: 1 to 2 h
